# Measured values reported in patent US5223526A, “Pyrazole carboxanilide fungicides and use” (Monsanto Company, priority 1992, dated 1993).
# Key:
# [1] = tested on: Botrytis cinerea; assay: Eggplant grey mold; format: in vivo; design: scale not given here; conditions: inoculated 24 h later, rated after 3-4 days; for Disease Control Rating at 500 ppm: eggplant sprayed with 500 ppm; for Disease Control Rating at 20 ppm: eggplant sprayed with 20 ppm; for Disease Control Rating at 100 ppm: eggplant sprayed with 100 ppm
# Method in brief: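 Protective test: compound formulations (2:3 acetone:water, 0.5% Tween 20; 500, 100 or 20 ppm) sprayed on 14-18-day-old plants, with spore inoculum (4×10^6 spore/mL) applied a day later. Disease control rated on Botrytis lesions after 3-4 days at 23 °C and 100% humidity.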
# [2] = tested on: Rhizoctonia solani; assay: Rice sheath blight; format: in vivo; design: scale not given here; conditions: inoculated two days later, rated after 7 days, average of five plants; for Disease Control Rating at 0.5 mg/mL: foliage and soil sprayed with 0.5 mg/mL; for Disease Control Rating at 0.02 mg/mL: foliage and soil sprayed with 0.02 mg/mL; for Disease Control Rating at 0.1 mg/mL: foliage and soil sprayed with 0.1 mg/mL
# Method in brief: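 Rice plants 11–15 days old had foliage and soil sprayed with 0.5, 0.1 or 0.02 mg/mL Compound A in water/acetone/Tween 20, then kept in flooded trays. Two days later, rice-grain Rhizoctonia solani inoculum went to plant bases; disease control scored versus untreated after 7 days at 25 °C, high humidity, averaging five plants.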
# [3] = molecular target: T1, succinate dehydrogenase (Botrytis cinerea, UniProt A0A384J5E4+A0A384J8V8+A0A384JHJ5); assay: Enzyme inhibition: succinate dehydrogenase activity in Botrytis cinerea mitochondria (DCPIP reduction); format: biochemical; conditions: concentration required to inhibit the rate of DCPIP reduction by 50%; Botrytis cinerea isolate Nick mitochondria; read-out: I50 (μM conc.)
# T1 construct: succinate-DCPIP reductase assay with KCN
# T1 sequence (A0A384J5E4 1-300): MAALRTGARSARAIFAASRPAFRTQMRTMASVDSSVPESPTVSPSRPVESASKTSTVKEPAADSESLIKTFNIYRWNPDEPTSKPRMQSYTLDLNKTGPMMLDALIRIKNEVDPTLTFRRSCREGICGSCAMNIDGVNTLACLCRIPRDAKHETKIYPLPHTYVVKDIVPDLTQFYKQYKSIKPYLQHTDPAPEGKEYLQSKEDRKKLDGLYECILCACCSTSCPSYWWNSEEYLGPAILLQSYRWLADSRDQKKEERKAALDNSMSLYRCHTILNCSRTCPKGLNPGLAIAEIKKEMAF
# T1 sequence (A0A384J8V8 1-189): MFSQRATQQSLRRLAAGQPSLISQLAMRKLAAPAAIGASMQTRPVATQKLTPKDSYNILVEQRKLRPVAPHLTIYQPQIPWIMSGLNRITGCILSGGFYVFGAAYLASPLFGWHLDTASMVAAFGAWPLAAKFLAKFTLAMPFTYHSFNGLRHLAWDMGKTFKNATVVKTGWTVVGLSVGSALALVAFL
# T1 sequence (A0A384JHJ5 1-192): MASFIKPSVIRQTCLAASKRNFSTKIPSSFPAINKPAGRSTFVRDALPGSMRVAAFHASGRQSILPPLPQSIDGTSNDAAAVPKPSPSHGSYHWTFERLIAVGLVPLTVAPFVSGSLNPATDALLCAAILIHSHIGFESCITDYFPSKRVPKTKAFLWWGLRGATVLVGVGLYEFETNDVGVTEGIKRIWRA
# T1 sequence (A0A384K456 1-647 partner): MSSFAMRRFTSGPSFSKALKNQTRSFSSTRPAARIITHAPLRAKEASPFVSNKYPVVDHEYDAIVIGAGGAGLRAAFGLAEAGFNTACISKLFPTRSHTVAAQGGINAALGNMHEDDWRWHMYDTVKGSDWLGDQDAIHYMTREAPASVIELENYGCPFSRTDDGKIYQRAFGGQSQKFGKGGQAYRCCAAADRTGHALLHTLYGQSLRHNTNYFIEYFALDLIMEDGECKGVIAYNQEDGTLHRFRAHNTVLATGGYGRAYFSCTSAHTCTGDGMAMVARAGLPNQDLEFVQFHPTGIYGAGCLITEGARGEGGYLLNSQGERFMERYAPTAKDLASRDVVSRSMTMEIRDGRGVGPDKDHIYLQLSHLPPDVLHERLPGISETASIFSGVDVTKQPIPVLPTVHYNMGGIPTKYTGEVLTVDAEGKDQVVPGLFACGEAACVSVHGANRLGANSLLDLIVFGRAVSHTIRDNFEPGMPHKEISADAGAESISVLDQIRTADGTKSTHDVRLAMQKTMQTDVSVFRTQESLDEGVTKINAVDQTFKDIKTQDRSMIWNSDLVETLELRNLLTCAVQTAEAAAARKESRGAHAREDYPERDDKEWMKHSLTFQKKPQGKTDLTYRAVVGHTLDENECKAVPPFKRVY
# Method in brief: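 Crude mitochondria from Botrytis cinerea isolate Nick mycelia, prepared by bead-beating and differential centrifugation, started reactions. SDH activity followed as DCPIP reduction at 600 nm in 50 mM K-phosphate pH 7.2 with 1 mM KCN, 45 μM DCPIP, 17 mM succinate, 1% acetone. I50 from semilog inhibition plots, corrected for succinate-free rates.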
# [4] = tested on: Botrytis cinerea; assay: Vine grey mold (grape berries); format: in vivo; conditions: average of six berries, 7-10 days; for pest or weed control at 50 ppm: grape berries treated with 50 ppm, read-out: % DISEASE CONTROL 50 ppm; for pest or weed control at 200 ppm: grape berries treated with 200 ppm, read-out: % DISEASE CONTROL 200 ppm
# Method in brief: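 Preventive berry test: compound at 50 or 200 ppm (acetone/water, 0.05% Tween 20) applied one day before inoculation with 10^6 spores/mL Botrytis conidia. After 7-10 days at 20 °C under 12 h light, infected surface area rated; disease control expressed as percent reduction from control mean; repeated-test values averaged.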
Structure (SMILES),Disease Control Rating at 500 ppm [1],Disease Control Rating at 0.5 mg/mL [2],IC50 [3] [µM],pest or weed control at 50 ppm [4] [%],pest or weed control at 200 ppm [4] [%],Disease Control Rating at 20 ppm [1],Disease Control Rating at 100 ppm [1],Disease Control Rating at 0.02 mg/mL [2],Disease Control Rating at 0.1 mg/mL [2]
"C[C@@H]1CCC[C@H](C)[C@H]1Oc1ccccc1NC(=O)c1cn(C)nc1C(F)(F)F [Example 76, 1H-pyrazole-4-Carboxamide, 1 methyl-N-[2-[(2,6-dimethylcyclohexyl)oxy]phenyl]-3-(trifluoromethyl)-, (1alpha,2beta,6beta)-]",0,0,0.032,8,0,,,,
"Cn1cc(C(=S)Nc2ccccc2C2CCCCC2)c(C(F)F)n1 [Example 77, 1H-pyrazole-4-carbothioamide, N-(2-cyclohexylphenyl)-3-(difluoromethyl)-1-methyl]",2,0,22,85,82,0,1,,
"Cn1cc(C(=S)Nc2ccccc2C2CCCCCC2)c(C(F)(F)F)n1 [Example 78, 1H-pyrazole-4-carbothioamide, N-(2-cycloheptylphenyl)-3-(trifluoromethyl)-1-methyl]",2,0,8.7,35,35,1,1,,
"Cn1cc(C(=O)Nc2ccccc2C2(C)CCCC2)c(C(F)F)n1 [Example 83, 1H-pyrazole-4-carboxamide, 3-(difluoromethyl)-1-methyl-N-[2-(1-methylcyclopentyl)phenyl]-]",2,3,0.13,56,55,0,0,3,3
"Cn1nc(C(F)(F)F)c(C(=O)Nc2ccccc2C2CCCCC2)c1F [Example 84, 1H-pyrazole-4-carboxamide, N-(2-cyclohexylphenyl)-5-fluoro-1-methyl-3-(trifluoromethyl)-]",2,0,0.013,93,96,0,1,,
"Cn1nc(C(F)(F)F)c(C(=O)Nc2ccccc2C2CCCCCC2)c1F [Example 86, 1H-pyrazole-4-carboxamide, N-(2-cycloheptylphenyl)-5-fluoro-1-methyl-3-(trifluoromethyl)-]",0,3,0.0063,66,82,,,3,3
"Cn1nc(C(F)(F)F)c(C(=O)Nc2ccccc2C2CCCCC2)c1Cl [Example 87, 1H-pyrazole-4-carboxamide, 5-chloro-N-(2-cyclohexylphenyl)-1-methyl-3-(trifluoromethyl)-]",0,2,0.059,61,46,,,,
"Cn1nc(C(F)(F)F)c(C(=O)Nc2ccccc2C2CCCCCC2)c1Cl [Example 89, 1H-pyrazole-4-carboxamide, 5-chloro-N-(2-cycloheptylphenyl)-1-methyl-3-(trifluoromethyl)-]",0,0,0.021,24,13,,,,
"Cn1cc(C(=O)Nc2ccccc2C2CCCC2)c(C(F)(F)Cl)n1 [Example 90, 1H-pyrazole-4-carboxamide, 3-(chlorodifluoromethyl)-N-(2-cyclopentylphenyl)-1-methyl-]",0,0,0.79,0,33,0,0,,
"Cn1cc(C(=O)Nc2ccccc2C2CCCCCC2)c(C(F)(F)Cl)n1 [Example 92, 1H-pyrazole-4-carboxamide, 3-(chlorodifluoromethyl)-N-(2-cycloheptylphenyl)-1-methyl-]",0,2,0.062,36,30,,,0,1
"Cn1cc(C(=O)Nc2cc(Cl)ccc2C2CCCCC2)c(C(F)F)n1 [Example 93, 1H-pyrazole-4-carboxamide, N-(5-chloro-2-cyclohexylphenyl)-3-(difluoromethyl)-1-methyl-]",0,0,0.044,0,15,0,0,,
"Cn1cc(C(=O)Nc2cc(Cl)ccc2C2CCCCC2)c(C(F)(F)F)n1 [Example 94, 1H-pyrazole-4-carboxamide, N-(5-chloro-2-cyclohexylphenyl)-1-methyl-3-(trifluoromethyl)-]",0,0,0.074,0,0,,,,
"Cn1cc(C(=O)Nc2ccc(F)cc2C2(C)CCCCC2)c(C(F)F)n1 [Example 95, 1H-pyrazole-4-carboxamide, 3-(difluoromethyl)-N-[4-fluoro-2-(1-methylcyclohexyl)phenyl]-1-methyl-]",0,0,0.64,48,26,,,,
"Cc1ccc(OC2CCCCC2)c(NC(=O)c2cn(C)nc2C(F)F)c1 [Example 96, 1H-pyrazole-4-carboxamide, N-[2-(cyclohexyloxy)-5-methylphenyl]-3-(difluoromethyl)-1-methyl-]",0,0,0.43,0,0,,,,
"Cc1ccc(OC2CCCCC2)c(NC(=O)c2cn(C)nc2C(F)(F)F)c1 [Example 97, 1H-pyrazole-4-carboxamide, N-[2-(cyclohexyloxy)-5-methylphenyl]-1-methyl-3-(trifluoromethyl)-]",1,0,0.59,0,1,0,0,,
"Cn1cc(C(=O)Nc2ccc(F)cc2C2(C)CCCCC2)c(C(F)(F)F)n1 [Example 98, 1H-pyrazole-4-carboxamide, N-[4-fluoro-2-(1-methylcyclohexyl)-phenyl]-1-methyl-3-(trifluoromethyl)-]",0,0,0.8,14,0,,,,
